In PubChem BioAssay AID330 (DTP/NCI, 2004):
Several values for one entry are separate records, joined by “and”; a condition that tells them apart may be missing. Equal values may be shown once. Toxic doses and inconclusive results are not listed. How the source made its calls: active means survival T/C of 150% or more; inactive means T/C below 125% in these data.

Test system: P388 leukemia ip, CD2F1 mice, survival T/C
Assay: NCI In Vivo Anticancer Drug Screen. Data for tumor model P388 Leukemia (intraperitoneal) in CD2F1 (CDF1) mice
Settings: endpoint: median survival time, higher = longer survival
How it was run: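 Mice carrying the transplanted tumor received test compound or vehicle. Survival was recorded in each group, and the value is the treated-group measurement divided by that of the vehicle-treated control group.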

[1] = dose: 50.0 mg/kg/injection, schedule: Q01DX009 (ip), vehicle: saline with Tween-80
[2] = dose: 100.0 mg/kg/injection, schedule: Q01DX009 (ip), vehicle: saline with Tween-80
[3] = dose: 200.0 mg/kg/injection, schedule: Q01DX009 (ip), vehicle: saline with Tween-80
[4] = dose: 50.0 mg/kg/injection, schedule: Q01DX005 (ip), vehicle: Klucel (hydroxypropylcellulose) (HPC)
[5] = dose: 100.0 mg/kg/injection, schedule: Q01DX005 (ip), vehicle: Klucel (hydroxypropylcellulose) (HPC)
[6] = dose: 200.0 mg/kg/injection, schedule: Q01DX005 (ip), vehicle: Klucel (hydroxypropylcellulose) (HPC)
[7] = dose: 60.0 mg/kg/injection, schedule: Q01DX005 (ip), vehicle: saline with Tween-80

Measured: T/C

CC1=NS(C)(=O)=c2ccc(C)cc2=N1 (configuration not stated)
inactive: dose: 50.0 mg/kg/injection, schedule: Q01DX005 (ip), vehicle: acetone 100 % of control | dose: 100.0 mg/kg/injection, schedule: Q01DX005 (ip), vehicle: acetone 100 % of control | dose: 200.0 mg/kg/injection, schedule: Q01DX005 (ip), vehicle: acetone 100 % of control

Cc1ccc(S(=O)c2cc(C(C)(C)C)cc(C(C)(C)C)c2O)cc1 (configuration not stated)
inactive: [1] 103 % of control | [2] 110 % of control | [3] 88 % of control

Nc1ncnc2c1ccn2CC(O)COP(=O)(O)O (configuration not stated)
inactive: dose: 50.0 mg/kg/injection, schedule: Q01DX005 (ip), vehicle: distilled water + alcohol 104 % of control | dose: 100.0 mg/kg/injection, schedule: Q01DX005 (ip), vehicle: distilled water + alcohol 100 % of control | dose: 200.0 mg/kg/injection, schedule: Q01DX005 (ip), vehicle: distilled water + alcohol 100 % of control

O=C1C(Cl)=C(NC(=O)C2CCCCC2)C(=O)C(Cl)=C1NC(=O)C1CCCCC1
inactive: dose: 25.0 mg/kg/injection, schedule: Q01DX005 (ip), vehicle: Klucel (hydroxypropylcellulose) (HPC) 90 % of control | [4] 90 % of control | [5] 88 % of control | [6] 89 % of control

CC(=O)Sc1ccccc1C(=O)NCc1ccc(Cl)cc1
inactive: [1] 117 % of control | [2] 104 % of control | [3] 120 % of control

CC(=O)OCCOCNC(=S)NN
inactive: [7] 101 % of control | dose: 120.0 mg/kg/injection, schedule: Q01DX005 (ip), vehicle: saline with Tween-80 101 % of control | dose: 240.0 mg/kg/injection, schedule: Q01DX005 (ip), vehicle: saline with Tween-80 90 % of control

COc1ccc(Cc2n[nH]c(=O)c3c(C)[nH]nc23)cc1
inactive: dose: 50.0 mg/kg/injection, schedule: Q01DX009 (ip), vehicle: Klucel (hydroxypropylcellulose) (HPC) 93 % of control | dose: 100.0 mg/kg/injection, schedule: Q01DX009 (ip), vehicle: Klucel (hydroxypropylcellulose) (HPC) 100 % of control | dose: 200.0 mg/kg/injection, schedule: Q01DX009 (ip), vehicle: Klucel (hydroxypropylcellulose) (HPC) 119 % of control

CSC1=Nc2ccccc2N=C(N2CCCC2)C1
inactive: [4] 103 % of control | [5] 97 % of control | [6] 97 % of control

CC(C)CC1N=C(NN=C(CCl)CCl)OP1(=O)NCCCCCCNP1(=O)OC(NN=C(CCl)CCl)=NC1CC(C)C (configuration not stated)
inactive: dose: 60.0 mg/kg/injection, schedule: Q01DX005 (ip), vehicle: Klucel (hydroxypropylcellulose) (HPC) 106 % of control

C/C=C(\C)C(=O)N/N=C\c1cc(Cl)cc(Cl)c1O
inactive: dose: 12.5 mg/kg/injection, schedule: Q01DX009 (ip), vehicle: olive oil, sesame oil, peanut oil 106 % of control | dose: 25.0 mg/kg/injection, schedule: Q01DX009 (ip), vehicle: olive oil, sesame oil, peanut oil 98 % of control | dose: 50.0 mg/kg/injection, schedule: Q01DX009 (ip), vehicle: olive oil, sesame oil, peanut oil 106 % of control | dose: 100.0 mg/kg/injection, schedule: Q01DX009 (ip), vehicle: olive oil, sesame oil, peanut oil 102 % of control | dose: 200.0 mg/kg/injection, schedule: Q01DX009 (ip), vehicle: olive oil, sesame oil, peanut oil 96 % of control | dose: 400.0 mg/kg/injection, schedule: Q01DX009 (ip), vehicle: olive oil, sesame oil, peanut oil 93 % of control

Cc1cc(Cl)ccc1S(=O)(=O)Cl
inactive: [1] 104 % of control | [2] 103 % of control

COc1ccc2c(c1)OC(C)(C)C(c1ccccc1)=C2c1ccc(O)cc1
inactive: dose: 15.0 mg/kg/injection, schedule: Q01DX005 (ip), vehicle: saline with Tween-80 97 % of control | dose: 30.0 mg/kg/injection, schedule: Q01DX005 (ip), vehicle: saline with Tween-80 92 % of control | [7] 95 % of control

CC1CN(C(=S)NNC(C)c2cc3ccccc3cn2)CC(C)O1 (configuration not stated)
inactive: dose: 12.5 mg/kg/injection, schedule: Q01DX005 (ip), vehicle: saline with Tween-80 97 % of control | dose: 25.0 mg/kg/injection, schedule: Q01DX005 (ip), vehicle: saline with Tween-80 112 % of control

O=C1CN(C(=O)Nc2ccc(Cl)c(Cl)c2)C(=S)N1
inactive: dose: 6.25 mg/kg/injection, schedule: Q01DX009 (ip), vehicle: Klucel (hydroxypropylcellulose) (HPC) 88 % of control | dose: 12.5 mg/kg/injection, schedule: Q01DX009 (ip), vehicle: Klucel (hydroxypropylcellulose) (HPC) 101 % of control | dose: 25.0 mg/kg/injection, schedule: Q01DX009 (ip), vehicle: Klucel (hydroxypropylcellulose) (HPC) 103 % of control and 90 % of control
